For series [1], the system named is Escherichia coli 25922. Put plainly: Experimental septicaemia in mice, oral antimicrobial efficacy. The settings on record: Albino mice 16-20 g infected i.p. with Escherichia coli 25922, ester given orally in Tween 80 (4%) 1 and 3 h after infection, dose protecting 50% of animals, survival 4 days after infection, probit method; for ED50: read-out: ED₅₀ in mg/kg p.o. Type of series: in vivo. The text has this: Die perorale antimikrobielle Wirksamkeit der erfindungsgemässen Ester von antibiotisch wirksamen Carbonsäuren kann beispielsweise im nachfolgend beschriebenen Tierversuch nachgewiesen werden:
(§1) Man verursacht eine experimentelle Septikämie in 16-20 g schweren Albinomäusen, indem man den Versuchstieren eine Probe einer verdünnten Kultur des Testorganismus, Escherichia coli 25922, welche über Nacht gewachsen ist. intraperitoneal injiziert. Die verabreichte Probe wird dabei so bemessen, dass die verabreichte Dosis etwa 10-20 mal grösser ist, als die Dosis, welche benötigt wird um 50% der unbehandelten Versuchstiere innerhalb von 48 Stunden zu töten. Die Bakterien wurden als Suspension in Kulturbrühe injiziert. Sowohl für die Kontrolle als auch für die Behandlung wurden für jede getestete Dosis Gruppen zu je 5 Versuchstieren verwendet. Die erfindungsgemässen Ester wurden oral verabreicht, und zwar als Lösung in Tween 80 (4%), wobei die Konzentrationen so gewählt wurden, dass jedes Versuchstier 500 µl erhielt. Die Behandlungen erfolgten 1 und 3 Stunden nach der Infektion. Die ED₅₀ ist diejenige Dosis, welche 50% der Versuchstiere schützt, und wurde ausgehend von der Ueberlebensrate nach 4 Tagen nach der Infektion mittels der Probitmethode berechnet. In der nachfolgenden Tabelle sind die ED₅₀-Werte in mg/kg p.o. für Vertreter der erfindungsgemassen Stoffklasse angegeben. Die Tabelle enthält ausserdem Angaben über die akute Toxizität der erfindungsgemässen Ester bei einmaliger oraler Verabreichung an Mäusen. Tabelle

Series [2] has as its system Mäusen. Put plainly: Acute toxicity after a single oral administration to mice. Type of series: in vivo.
Source text: as §1

These results are taken from patent publication EP0318767A2, “Esters of pharmacologically active carboxylic acids splittable under physiological conditions” (F. HOFFMANN-LA ROCHE AG, priority 1987, dated 1989).

As to `CC/C=C(\COC(=O)C1=C(CN=[N+]=[N-])CS[C@@H]2[C@H](NC(=O)/C(=N\OC)c3csc(N)n3)C(=O)N12)C(=O)OCC(C)C` [Verbindung A, (E)-2-(Isobutoxycarbonyl)-2-pentenyl (6R,7R)-7-[(Z)-2-(2-amino-4-thiazolyl)-2-(methoxyimino)acetamido]-3-(azidomethyl)-8-oxo-5-thia-1-azabicyclo[4.2.0]oct-2-en-2-carboxylat], the ED50 in series [1] came to 0.28 mg/kg. Besides, the “DL₅₀ in mg/kg p.o.” value in series [2] is more than 5000 mg/kg. Consider `C/C=C(\COC(=O)C1=C(C)CS[C@@H]2[C@H](NC(=O)/C(=N\OC)c3csc(N)n3)C(=O)N12)C(=O)OCC` [Verbindung C, (E)-2-(Aethoxycarbonyl)-2-butenyl (6R,7R)-7-[(Z)-2-(2-amino-4-thiazolyl)-2-(methoxyimino)acetamido]-3-methyl-8-oxo-5-thia-azabicyclo[4.2.0]oct-2-en-2-carboxylat], for which the “ED₅₀ in mg/kg p.o.” value in series [1] was 0,89 mg/kg. Besides, in series [2], the “DL₅₀ in mg/kg p.o.” value was more than 5000 mg/kg. `CC/C=C(\COC(=O)C1=C(C)CS[C@@H]2[C@H](NC(=O)/C(=N\OC)c3csc(N)n3)C(=O)N12)C(=O)OCC(C)C` [Verbindung B, (E)-2-(Isobutoxycarbonyl)-2-pentenyl (6R,7R)-7-[(Z)-2-(2-amino-4-thiazolyl)-2-(methoxyimino)acetamido]-3-methyl-8-oxo-5-thia-1-azabicyclo[4.2.0]oct-2-en-2-carboxylat]: the ED50 in series [1] worked out at 1.4 mg/kg.
